Our source for the EC50 values is patent US9133163B2, “Dihydropyrazole GPR40 modulators” (Bristol-Myers Squibb Company, priority 2012, dated 2015).

The EC50 is the concentration needed to bring the measured effect to its halfway point.

Molecules are shown by their SMILES.

T1 sequence (O14842 whole entry): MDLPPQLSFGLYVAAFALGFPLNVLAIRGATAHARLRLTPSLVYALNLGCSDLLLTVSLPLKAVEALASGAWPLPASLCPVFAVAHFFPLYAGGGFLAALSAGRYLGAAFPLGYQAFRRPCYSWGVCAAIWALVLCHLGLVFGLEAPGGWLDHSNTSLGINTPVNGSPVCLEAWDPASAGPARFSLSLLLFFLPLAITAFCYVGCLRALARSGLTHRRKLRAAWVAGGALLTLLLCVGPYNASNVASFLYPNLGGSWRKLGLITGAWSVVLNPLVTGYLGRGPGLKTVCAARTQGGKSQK

The target in the first test is T1, hGPR40 (Homo sapiens, UniProt O14842). The test can be described thus: FDSS-based intracellular calcium assay. The class given is cell-based. The arrangement: 3xFLAG; expressed in transfected cells. Conditions: intracellular Ca2+ response, cells expressing GPR40. The procedure:
FDSS-Based Intracellular Calcium Assay
Compounds are dissolved in DMSO and diluted to desired concentrations with assay buffer and added to the cells as 3× solution (20 μL per well). Run fluorescence/luminescence reader FDSS (Hamamatsu) to read intracellular Ca^2+ response.
On the technique in general: Calcium flux is commonly read through the fluorescence of an indicator in the cells.
For `CCOc1ccc(F)c(N2CCC(Oc3ccc(N4N=C(C(F)(F)F)[C@@H](C)[C@@H]4CC(=O)O)cc3)C(CC(C)C)C2)c1` (single isomer, unassigned) [Example 27 (Isomer 1)], the EC50 stood at 412 nM.

In the case of `CCOc1ccc(F)c(N2CCC(Oc3ccc(N4N=C(C(F)(F)F)[C@@H](C)[C@@H]4CC(=O)O)cc3)C(CC(C)C)C2)c1` (single isomer, unassigned) [Example 27 (Isomer 2)], the EC50 was found to be 34 nM.

`COc1ccc(F)c(N2CCC(Oc3ccc(N4N=C(C(F)(F)F)[C@@H](C)[C@@H]4CC(=O)O)cc3)C(F)C2)c1` (single isomer, unassigned) [Example 57 (Isomer 4)]: the EC50 is 66 nM.

For the compound `CC[C@@H]1C(C(F)(F)F)=NN(c2ccc(OC3CCN(c4cc(OC)ccc4F)CC3)cc2)[C@H]1CC(=O)O` (single isomer, unassigned) [Example 88, Isomer 1], the EC50 worked out at 78 nM.

On to `COc1cc(Cl)cc(N2CCC(Oc3ccc(N4N=C(C(F)(F)F)[C@@H](C)[C@@H]4CC(=O)O)cc3)CC2)n1` [Example 78, 2-((4S,5S)-1-(4-((1-(4-Chloro-6-methoxypyridin-2-yl)piperidin-4-yl)oxy)phenyl)-4-methyl-3-(trifluoromethyl)-4,5-dihydro-1H-pyrazol-5-yl)acetic acid], for which the EC50 came out at 1990 nM.

On to `COc1cc(F)cc(N2CCC(Oc3ccc(N4N=C(C(F)(F)F)[C@@H](C)[C@@H]4CC(=O)O)cc3)CC2)n1` [Example 80, 2-((4S,5S)-1-(4-((1-(4-Fluoro-6-methoxypyridin-2-yl)piperidin-4-yl)oxy)phenyl)-4-methyl-3-(trifluoromethyl)-4,5-dihydro-1H-pyrazol-5-yl)acetic acid], for which the EC50 was 2560 nM.

Consider `COc1cc(N2CC[C@H](Oc3ccc(N4N=C(C(F)(F)F)[C@@H](C)[C@@H]4CC(=O)O)cc3)[C@@H](C)C2)c(Cl)cn1` [Example 81, Isomer 1, 2-((4S,5S)-1-(4-((1-(5-Chloro-2-methoxypyridin-4-yl)-3-methylpiperidin-4-yl)oxy)phenyl)-4-methyl-3-(trifluoromethyl)-4,5-dihydro-1H-pyrazol-5-yl)acetic acid], for which the EC50 amounted to 319 nM.

For `COc1cc(N2CCC(Oc3ccc(N4N=C(C(F)(F)F)[C@@H](C)[C@@H]4CC(=O)O)cc3)C(C)C2)c(Cl)cn1` (stereo partly drawn) [Example 81, Isomer 2, 2-((4S,5S)-1-(4-((1-(5-Chloro-2-methoxypyridin-4-yl)-3-methylpiperidin-4-yl)oxy)phenyl)-4-methyl-3-(trifluoromethyl)-4,5-dihydro-1H-pyrazol-5-yl)acetic acid], the EC50 worked out at 71 nM.

For the compound `CCOc1cc(N2CC[C@H](Oc3ccc(N4N=C(C(F)(F)F)[C@@H](C)[C@@H]4CC(=O)O)cc3)[C@@H](C)C2)c(Cl)cn1` [Example 82, 2-((4S,5S)-1-(4-(((3S,4S)-1-(5-Chloro-2-ethoxypyridin-4-yl)-3-methylpiperidin-4-yl)oxy)phenyl)-4-methyl-3-(trifluoromethyl)-4,5-dihydro-1H-pyrazol-5-yl)acetic acid], the EC50 worked out at 760 nM.

As to `CCOc1cc(N2CC[C@@H](Oc3ccc(N4N=C(C(F)(F)F)[C@@H](C)[C@@H]4CC(=O)O)cc3)[C@H](C)C2)c(Cl)cn1` [Example 83, 2-((4S,5S)-1-(4-(((3R,4R)-1-(5-Chloro-2-ethoxypyridin-4-yl)-3-methylpiperidin-4-yl)oxy)phenyl)-4-methyl-3-(trifluoromethyl)-4,5-dihydro-1H-pyrazol-5-yl)acetic acid], the EC50 was found to be 224 nM.

Consider `CCOc1cc(N2CC[C@H](Oc3ccc(N4N=C(C(F)(F)F)[C@@H](C)[C@@H]4CC(=O)O)cc3)[C@@H](C)C2)c(F)cn1` [Example 84, 2-((4S,5S)-1-(4-(((3S,4S)-1-(2-Ethoxy-5-fluoropyridin-4-yl)-3-methylpiperidin-4-yl)oxy)phenyl)-4-methyl-3-(trifluoromethyl)-4,5-dihydro-1H-pyrazol-5-yl)acetic acid], for which the EC50 came out at 2580 nM.

On to `CCOc1cc(N2CC[C@@H](Oc3ccc(N4N=C(C(F)(F)F)[C@@H](C)[C@@H]4CC(=O)O)cc3)[C@H](C)C2)c(F)cn1` [Example 85, 2-((4S,5S)-1-(4-(((3R,4R)-1-(2-Ethoxy-5-fluoropyridin-4-yl)-3-methylpiperidin-4-yl)oxy)phenyl)-4-methyl-3-(trifluoromethyl)-4,5-dihydro-1H-pyrazol-5-yl)acetic acid], for which the EC50 is 277 nM.

With `COc1ccc(F)c(N2CCC(Oc3ccc(N4N=C(c5ccc(C#N)cc5)[C@@H](C)[C@@H]4CC(=O)O)cc3)CC2)c1` [Example 91, 2-((4S,5S)-3-(4-Cyanophenyl)-1-(4-((1-(2-fluoro-5-methoxyphenyl)piperidin-4-yl)oxy)phenyl)-4-methyl-4,5-dihydro-1H-pyrazol-5-yl)acetic acid], the EC50 was 62 nM.

Consider `COC(=O)c1ccc(C2=NN(c3ccc(OC4CCN(c5cc(OC)ccc5F)CC4)cc3)[C@@H](CC(=O)O)[C@@H]2C)cc1` [Example 92, 2-((4S,5S)-1-(4-((1-(2-Fluoro-5-methoxyphenyl)piperidin-4-yl)oxy)phenyl)-3-(4-(methoxycarbonyl)phenyl)-4-methyl-4,5-dihydro-1H-pyrazol-5-yl)acetic acid], for which the EC50 stood at 139 nM.

For `CCOc1ccc(F)c(N2CCC(Oc3ccc(N4N=C(c5ccc(C#N)cc5F)[C@@H](C)[C@@H]4CC(=O)O)cc3)CC2)c1` [Example 94, 2-((4S,5S)-3-(4-Cyano-2-fluorophenyl)-1-(4-((1-(5-ethoxy-2-fluorophenyl)piperidin-4-yl)oxy)phenyl)-4-methyl-4,5-dihydro-1H-pyrazol-5-yl)acetic acid], the EC50 was 59 nM.

As for `CCOc1ccc(F)c(N2CCC(Oc3ccc(N4N=C(c5ccc(F)cc5)[C@@H](C)[C@@H]4CC(=O)O)cc3)CC2)c1` [Example 95, 2-((4S,5S)-1-(4-((1-(5-Ethoxy-2-fluorophenyl)piperidin-4-yl)oxy)phenyl)-3-(4-fluorophenyl)-4-methyl-4,5-dihydro-1H-pyrazol-5-yl)acetic acid], the EC50 was 108 nM.

As to `C[C@@H]1C(C(F)(F)F)=NN(c2ccc(OC3CCN(c4cc(O)ccc4F)CC3)cc2)[C@H]1CC(=O)O` [Example 102, 2-((4S,5S)-1-(4-((1-(2-Fluoro-5-hydroxyphenyl)piperidin-4-yl)oxy)phenyl)-4-methyl-3-(trifluoromethyl)-4,5-dihydro-1H-pyrazol-5-yl)acetic acid], the concentration for a half-maximal effect (EC50) amounted to 190 nM.

`COc1ccc(C)c(N2CCC(Oc3ccc(N4N=C(C(F)(F)F)[C@@H](C)[C@@H]4CC(=O)O)cc3)CC2)c1` [Example A2, 2-((4S,5S)-1-(4-(1-(5-Methoxy-2-methylphenyl)piperidin-4-yloxy)phenyl)-4-methyl-3-(trifluoromethyl)-4,5-dihydro-1H-pyrazol-5-yl)acetic acid]: the EC50 stood at 161 nM.

On to `COc1cc(N2CC[C@@H](Oc3ccc(N4N=C(C(F)(F)F)[C@@H](C)[C@@H]4CC(=O)O)c(Br)c3)[C@H](C)C2)c(Cl)cn1` [Example A3, 2-((4S,5S)-1-(2-Bromo-4-(((3R,4R)-1-(5-chloro-2-methoxypyridin-4-yl)-3-methylpiperidin-4-yl)oxy)phenyl)-4-methyl-3-(trifluoromethyl)-4,5-dihydro-1H-pyrazol-5-yl)acetic acid], for which the EC50 was 844 nM.

With `COc1cc(N2CC[C@@H](Oc3ccc(N4N=C(C(F)(F)F)[C@@H](C)[C@@H]4CC(=O)O)cc3Br)[C@H](C)C2)c(Cl)cn1` [Example A4, 2-((4S,5S)-1-(3-Bromo-4-(((3R,4R)-1-(5-chloro-2-methoxypyridin-4-yl)-3-methylpiperidin-4-yl)oxy)phenyl)-4-methyl-3-(trifluoromethyl)-4,5-dihydro-1H-pyrazol-5-yl)acetic acid], the EC50 was determined as 45 nM.

A further test has as its target T1, hGPR40. The test is described as follows: GPR40 IP-One HTRF assay in HEK293/GPR40 inducible cell lines. Conditions: HEK293 cells with tetracycline-inducible human GPR40; read-out: hGPR40 IP1 EC50. It is filed as cell-based. The arrangement: expressed in transfected cells. The procedure: GPR40 IP-One HTRF Assays in HEK293/GPR40 Inducible Cell Lines
Human, mouse and rat GPR40-mediated intracellular IP-One HTRF assays were established using human embryonic kidney HEK293 cells stably transfected with a tetracycline-inducible human, mouse or rat GPR40 receptor. Cells were routinely cultured in growth medium containing DMEM (Gibco Cat. #12430-047), 10% qualified FBS (Sigma, Cat. #F2442), 200 μg/ml hygromycin (Invitrogen, Cat. #16087-010) and 1.5 μg/ml blasticidin (Invitrogen, Cat. #R210-01). About 12-15 million cells were passed into a T175 tissue culture flask (BD FALCON® 353112) with growth medium and incubated for 16-18 hours (overnight) at 370 C with 5% CO2. The next day, assay medium was exchanged with growth medium containing 1000 ng/mL of tetracycline (Fluka Analytical, Cat. #87128) to induce GPR40 expression for 18-24 hours at […] incubator with 5% CO2. After induction, the cells were washed with PBS (Gibco, Cat. #14190-036) and detached with Cell Stripper (CELLGRO®, Cat. #25-056-CL). 10-20 mL growth medium were added to the flask and cells were collected in 50 mL tubes (FALCON®, Cat. #352098) and spun at 1000 RPM for 5 minutes. Culture medium was aspirated and the cells were resuspended in 10 mL of 1× IP-One Stimulation Buffer from the Cisbio IP-One kit (Cisbio, Cat. #62IPAPEJ). The cells were diluted to 1.4×10^6 cells/mL in Stimulation Buffer.
Test compounds were 3-fold, 11-point serially diluted in DMSO in a REMP assay plate (Matrix Cat. #4307) by BIOCEL® (Agilent). The compounds were transferred into an Echo plate (LABCYTE, Cat. #LP-0200) and […] of diluted compounds were transferred to an assay plate (proxi-plate from Perkin Elmer, Cat. #6008289) by Echo acoustic nano dispenser (LABCYTE, model ECHO550). 14 μL of the diluted cells were then added to the assay plate by Thermo (SN 836 330) CombiDrop and incubated at room temperature for 45 minutes. Then 3 μL of IP1 coupled to dye D2 from the Cisbio IP-One kit were added to the assay plate followed by 3 μL of Lumi4TM-Tb cryptate K from the kit. The plate was further incubated at room for 1 hour before reading on the Envision (Perkin Elmer Model2101) with an HTRF protocol. Activation data for the test compound over a range of concentrations was plotted as percentage activation of the test compound (100%=maximum response). After correcting for background [(sample read-mean of low control)/(mean of high control−mean of low control)](low control is DMSO without any compound), EC50 values were determined. The EC50 is defined as the concentration of test compound which produces 50% of the maximal response and was quantified using the 4 parameter logistic equation to fit the data.
As for `CCOc1ccc(F)c(N2CCC(Oc3ccc(N4N=C(C(F)(F)F)[C@@H](C)[C@@H]4CC(=O)O)cc3)C(CC(C)C)C2)c1` (single isomer, unassigned) [Example 27 (Isomer 1)], the EC50 is 90 nM.

As for `CCOc1ccc(F)c(N2CCC(Oc3ccc(N4N=C(C(F)(F)F)[C@@H](C)[C@@H]4CC(=O)O)cc3)C(CC(C)C)C2)c1` (single isomer, unassigned) [Example 27 (Isomer 2)], the EC50 was 84 nM.

Take `COc1ccc(F)c(N2CCC(Oc3ccc(N4N=C(C(F)(F)F)[C@@H](C)[C@@H]4CC(=O)O)cc3)C(F)C2)c1` (single isomer, unassigned) [Example 57 (Isomer 4)]: the EC50 is 11 nM.

In the case of `CC[C@@H]1C(C(F)(F)F)=NN(c2ccc(OC3CCN(c4cc(OC)ccc4F)CC3)cc2)[C@H]1CC(=O)O` (single isomer, unassigned) [Example 88, Isomer 1], the EC50 was 18 nM.
